Earlier results, collected in PubChem BioAssay AID1259409 (Chemical Carcinogenesis Research Information System (CCRIS), 2018).

Tested on: rodent chemically induced tumor inhibition, incidence and multiplicity
Test: CCRIS tumor inhibitor studies

In the case of O=c1c(O)c(-c2ccc(O)c(O)c2)oc2cc(O)cc(O)c12, the “tumour outcome (control, treated, inhibition, significance)” value (Carcinogen: 4-NITROQUINOLINE-1-OXIDE, 56-57-5, Dose [Inhibitor]: 0, 500 PPM IN DIET FOR 10 WK BEGINNING 1 WK PRIOR TO CARCINOGEN DOSE (STUDY DURATION: 32 WK), Route [Inhibitor]: ORAL, Species: RAT, Strain/Sex: F344/MALE, Target Tissue: Type of Lesion: TONGUE: CARCINOMA, Dose [Carcinogen]: 20 PPM IN DRINKING WATER FOR 8 WK, Promoter: NONE USED) is listed as 9/15 (60%), 2/16 (13%), 78%, p<0.05, the “tumour outcome (control, treated, inhibition, significance)” value (Carcinogen: 4-NITROQUINOLINE-1-OXIDE, 56-57-5, Dose [Inhibitor]: 0, 500 PPM IN DIET FOR 10 WK BEGINNING 1 WK PRIOR TO CARCINOGEN DOSE (STUDY DURATION: 32 WK), Route [Inhibitor]: ORAL, Species: RAT, Strain/Sex: F344/MALE, Target Tissue: Type of Lesion: TONGUE: PAPILLOMA, Dose [Carcinogen]: 20 PPM IN DRINKING WATER FOR 8 WK, Promoter: NONE USED) is listed as 4/15 (27%), 1/16 (6%), 78%, not significant and the “tumour outcome (control, treated, inhibition, significance)” value (Carcinogen: 4-NITROQUINOLINE-1-OXIDE, 56-57-5, Dose [Inhibitor]: 0, 500 PPM IN DIET FOR 22 WK BEGINNING 1 WK POST CARCINOGEN TREATMENT (STUDY DURATION: 32 WK), Route [Inhibitor]: ORAL, Species: RAT, Strain/Sex: F344/MALE, Target Tissue: Type of Lesion: TONGUE: CARCINOMA, Dose [Carcinogen]: 20 PPM IN DRINKING WATER FOR 8 WK, Promoter: NONE USED) is listed as 9/15 (60%), 1/15 (7%), 88%, p<0.05. The “tumour outcome (control, treated, inhibition, significance)” value (Carcinogen: 4-NITROQUINOLINE-1-OXIDE, 56-57-5, Dose [Inhibitor]: 0, 500 PPM IN DIET FOR 22 WK BEGINNING 1 WK POST CARCINOGEN TREATMENT (STUDY DURATION: 32 WK), Route [Inhibitor]: ORAL, Species: RAT, Strain/Sex: F344/MALE, Target Tissue: Type of Lesion: TONGUE: PAPILLOMA, Dose [Carcinogen]: 20 PPM IN DRINKING WATER FOR 8 WK, Promoter: NONE USED) was 4/15 (27%), 1/15 (7%), 74%, not significant, the “tumour outcome (control, treated, inhibition, significance)” value (Carcinogen: 7,12-DIMETHYLBENZ[A]ANTHRACENE, 57-97-6, Dose [Inhibitor]: 0, 0.2 ML OF A 1% SOLUTION 1/D FOR 2 WK APPLIED 5 MIN POST EACH CARCINOGEN DOSE THEN 1/D FOR 4 WK DURING PROMOTION STAGE, Route [Inhibitor]: DERMAL, Species: MOUSE, Strain/Sex: SWISS/MALE, Target Tissue: Type of Lesion: SKIN: PAPILLOMA, Dose [Carcinogen]: 0.2 ML OF A 0.24% SOLUTION IN DMSO 1/D FOR 2 WK, Promoter: CROTON OIL, 8001-28-3) was 23/23 (100%), 8/24 (33%), 67%, not calculated and the “tumour outcome (control, treated, inhibition, significance)” value (Carcinogen: 7,12-DIMETHYLBENZ[A]ANTHRACENE, 57-97-6, Dose [Inhibitor]: 0, 0.2 ML OF A 1% SOLUTION 1/D FOR 2 WK APPLIED 5 MIN PRIOR TO EACH CARCINOGEN DOSE (STUDY DURATION: 20 WK), Route [Inhibitor]: DERMAL, Species: MOUSE, Strain/Sex: SWISS/MALE, Target Tissue: Type of Lesion: SKIN: PAPILLOMA, Dose [Carcinogen]: 0.2 ML OF A 0.24% SOLUTION IN DMSO 1/D FOR 2 WK, Promoter: CROTON OIL, 8001-28-3) was 23/23 (100%), 20/24 (83%), 17%, not calculated. For the same compound, the “tumour outcome (control, treated, inhibition, significance)” value (Carcinogen: 7,12-DIMETHYLBENZ[A]ANTHRACENE, 57-97-6, Dose [Inhibitor]: 0, 3% IN DIET FOR 28 WK (STUDY DURATION: 28 WK), Route [Inhibitor]: ORAL, Species: RAT, Strain/Sex: SPRAGUE-DAWLEY/FEMALE, Target Tissue: Type of Lesion: MAMMARY GLAND: CARCINOMA, Dose [Carcinogen]: 10 MG/100 G BW ONCE) was 16/21 (76%), 10/22 (46%), 39% p<0.05, the “tumour outcome (control, treated, inhibition, significance)” value (Carcinogen: 7,12-DIMETHYLBENZ[A]ANTHRACENE, 57-97-6, Dose [Inhibitor]: 1.0% IN POWDERED DIET BEGINNING 1 WK POST CARCINOGEN DOSE FOR 51 WK (STUDY DURATION: 52 WK), Route [Inhibitor]: ORAL, Species: RAT, Strain/Sex: SPRAGUE-DAWLEY/FEMALE, Target Tissue: Type of Lesion: EAR DUCT: BENIGN TUMOR, Dose [Carcinogen]: 2.5 MG/100 G BW IN 0.5 ML SESAME OIL ONCE, Promoter: NONE USED) was 7/19 (37%), 4/18 (22%), 40%, not calculated and the “tumour outcome (control, treated, inhibition, significance)” value (Carcinogen: 7,12-DIMETHYLBENZ[A]ANTHRACENE, 57-97-6, Dose [Inhibitor]: 1.0% IN POWDERED DIET BEGINNING 1 WK POST CARCINOGEN DOSE FOR 51 WK (STUDY DURATION: 52 WK), Route [Inhibitor]: ORAL, Species: RAT, Strain/Sex: SPRAGUE-DAWLEY/FEMALE, Target Tissue: Type of Lesion: MAMMARY GLAND: CARCINOMA, Dose [Carcinogen]: 2.5 MG/100 G BW IN 0.5 ML SESAME OIL ONCE, Promoter: NONE USED) was 6/19 (32%), 4/18 (22%), 30%, not calculated. The “tumour outcome (control, treated, inhibition, significance)” value (Carcinogen: 7,12-DIMETHYLBENZ[A]ANTHRACENE, 57-97-6, Dose [Inhibitor]: 1.0% IN POWDERED DIET BEGINNING 1 WK POST CARCINOGEN DOSE FOR 51 WK (STUDY DURATION: 52 WK), Route [Inhibitor]: ORAL, Species: RAT, Strain/Sex: SPRAGUE-DAWLEY/FEMALE, Target Tissue: Type of Lesion: MAMMARY GLAND: FIBROADENOMA, Dose [Carcinogen]: 2.5 MG/100 G BW IN 0.5 ML SESAME OIL ONCE, Promoter: NONE USED) was 15/19 (79%), 8/18 (44%), 44%, not calculated and the “tumour outcome (control, treated, inhibition, significance)” value (Carcinogen: 7,12-DIMETHYLBENZ[A]ANTHRACENE, 57-97-6, Dose [Inhibitor]: 30 UMOL 2 D/WK FOR 18 WK APPLIED 30-40 MIN PRIOR TO AND CONCURRENT WITH EACH PROMOTER TREATMENT BEGINNING 10 D POST CARC, Route [Inhibitor]: DERMAL, Species: MOUSE, Strain/Sex: CD-1/FEMALE, Target Tissue: Type of Lesion: SKIN: PAPILLOMA, Dose [Carcinogen]: 200 NMOL ONCE, Promoter: 12-O-TETRADECANOYLPHORBOL-13-ACETATE, 16561-29-8) was 95%, 62%, 35%, not calculated.
